Literature values, collected in patent US20240180809A1, “METHOD FOR DYEING KERATIN MATERIAL, INCLUDING THE USE OF AN ORGANIC C1-C6 ALKOXY SILANE, A DYEING COMPOUND, AND A HEAT TREATMENT” (Henkel AG & Co. KGaA, priority 2021, published 2024).

Compound | solubility in water (25° C.) | other results
mixture of the sodium salts of mono- and sis-sulfonic acids of 2-(2-quinolyl)-1H-indene-1,3(2H)-dione [Acid Yellow 3] | 20 mg/mL | 
CCN(Cc1cccc(S(=O)(=O)[O-])c1)c1ccc(C(=C2C=CC(=[N+](CC)Cc3cccc(S(=O)(=O)[O-])c3)C=C2)c2ccccc2S(=O)(=O)[O-])cc1.[Na+].[Na+] [Acid Blue 9] |  | water solubility (25° C.): more than 20 wt. %
O=C([O-])C1=NN(c2ccc(S(=O)(=O)[O-])cc2)C(=O)C1N=Nc1ccc(S(=O)(=O)[O-])cc1.[Na+].[Na+].[Na+] (stereo not drawn) [Acid Yellow 23, trisodium salt of 4,5-dihydro-5-oxo-1-(4-sulfophenyl)-4-((4-sulfophenyl)azo)-1H-pyrazole-3-carboxylic acid] |  | solubility in water (in words) (in water at 25° C.): readily soluble
O=C([O-])c1c(Cl)c(Cl)c(Cl)c(Cl)c1-c1c2cc(Br)c(=O)c(Br)c-2oc2c(Br)c([O-])c(Br)cc12.[Na+].[Na+] [Acid Red 92, disodium salt of 3,4,5,6-tetrachloro-2-(1,4,5,8-tetrabromo-6-hydroxy-3-oxanthene-9-yl) benzoic acid] | greater than 10 g/L | 
Nc1cc(S(=O)(=O)[O-])cc2cc(S(=O)(=O)[O-])c(N=Nc3ccccc3)c(O)c12.[Na+].[Na+] [Acid Red 33, disodium salt of 5-amino-4-hydroxy-3-(phenylazo)-naphthalene-2,7-disulfonate] | 2.5 mg/mL | 
O=S(=O)([O-])c1ccc(N=Nc2c(O)ccc3ccccc23)cc1.[Na+] [Acid Orange 7, sodium salt of 4-[(2-hydroxy-1-naphthyl)azo]benzene sulphonate] | more than 7 g/L | 
